Test results taken from patent US20260265298A1, “PEPTIDE SUBSTRATES AND INHIBITORS OF CATHEPSIN B” (The Regents of the University of California, priority 2023, published 2026).
[ ]: non-standard residue; d: D form. The star is where a group is joined. AMC = Cc1cc(=O)oc2cc(N*)ccc12; Nle = CCCC[C@H](N)C(=O)O; Cbz = O=C(OCc1ccccc1)*

Columns and labels:
Format in all cases: biochemical
human cathepsin B [1] = molecular target: T1, human cathepsin B (Homo sapiens, UniProt P07858); assay: Cathepsin B activity with fluorogenic Z-peptide-AMC substrates (specific activity, pH profile); conditions: for cleavage by cathepsin B: pH 4.6 and 7.2, 40 μM substrate ('Table 1' comparison)
T1 construct: purchased R & D Systems 953-CY-010
Procedure: (§1) Cathepsin B activity with Z-Arg-Arg-AMC and Z-Phe-Arg-AMC substrates at pH 4.6 and 7.2. Cathepsin B (0.04 ng/μL) activity was assessed with Z-Arg-Arg-AMC and Z-Phe-Arg-AMC substrates (40 μM final concentration) (Table 1) in 40 mM citrate phosphate buffer pH 4.6 or Tris-HCl pH 7.2 in 1 mM EDTA, 100 mM NaCl, and 5 mM DTT with incubation at room temperature (25° C.) in triplicate and AMC fluorescence readings per second (RFU/s) (excitation 360 nm, emission 460 nm) were recorded over a period of 30 min by BioTek Synergy HTX plate reader (Software Version 3.08.01). Enzyme initial velocity was calculated using the highest slope recorded for 10 consecutive fluorescent readings within the initial 30 min. The mean and standard deviation (SD) were determined from triplicates. RFU/s were converted to pmol/min/μg (specific activity) using AMC standard curves. All data were plotted, calculated, and analyzed using GraphPad Prism (Version 9.4.1).
Analysis of pH-dependent cathepsin B activity with fluorogenic substrates designed from MSPMS data. For comparison of cathepsin B activity at pH 4.6, pH 5.5, and pH 7.2 with multiple fluorogenic substrates, cathepsin B (0.04 ng/μL) was incubated with 40 μM substrates consisting of Z-Lys-Arg-AMC. Z-Phe-Arg-AMC. Z-Arg-Arg-AMC. Z-Gly-Lys-Arg-AMC, Z-Val-Lys-Arg-AMC, Z-Tyr-Lys-Arg-AMC. Z-Phe-Lys-Arg-AMC, Z-Trp-Lys-Arg-AMC, Z-Leu-Lys-Arg-AMC, Z-Ala-Lys-Arg-AMC, Z-Nle-Arg-Arg-AMC, and Z-Nle-Lys-Arg-AMC. AMC product formation (RFU/s) was monitored in 40 mM citrate phosphate, pH 4.6 and pH 7.2, 1 mM EDTA, 100 mM NaCl, and 5 mM DTT was determined from the average of RFU/s triplicates at each pH condition.
For analysis of pH-dependent activity cathepsin B (0.04 ng/μL), proteolytic activity was monitored over the pH range of pH 2.2-9.0 in 40 mM citrate phosphate (pH 2.2 to pH 6.6) and 40 mM Tris-HCl (pH 7.0 to 9.0), 1 mM EDTA, 100 mM NaCl, and 5 mM DTT, with preincubation in each pH buffer for 10 min prior to initiating the assay by addition of Z-Nle-Lys-Arg-AMC, Z-Arg-Arg-AMC, or Z-Phe-Arg-AMC to a final concentration of 40 μM to generate the pH curve data.

cathepsin L = molecular target: T2, cathepsin L (Homo sapiens, UniProt P07711); assay: Substrate selectivity: cleavage of AMC substrates by cathepsin L
T2 construct: active cathepsin L (R & D Systems, #952-CY-010); purchased R & D Systems 952-CY-010
T2 sequence (P07711 114-333): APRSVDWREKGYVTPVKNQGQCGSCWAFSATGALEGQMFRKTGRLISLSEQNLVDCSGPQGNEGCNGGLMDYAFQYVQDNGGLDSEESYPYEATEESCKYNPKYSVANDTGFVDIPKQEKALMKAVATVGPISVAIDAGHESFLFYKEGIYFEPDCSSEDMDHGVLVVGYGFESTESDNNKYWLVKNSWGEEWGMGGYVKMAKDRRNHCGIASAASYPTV
Procedure: [Worded in the source for another target; used here, by the source, with some conditions changed.] as §1
(§2) For evaluation of cathepsin B and cysteine cathepsins for substrate selectivity each cathepsin was incubated with 4 μM substrates consisting of Z-Phe-Arg-AMC. Z-Arg-Arg-AMC, and Z-Nle-Lys-Arg-AMC, activity was monitored in 40 mM citrate phosphate (pH 4.6, pH 5.5 and pH 7.2), 1 mM EDTA, 100 mM NaCl, and 5 mM DTT for cathepsin B (0.04 ng/μL), cathepsin K (0.03 ng/μL), cathepsin L (0.03 ng/μL), cathepsin S (0.14 ng/μL), cathepsin V (0.04 ng/μL), and cathepsin X (0.20 ng ng/μL). Since cathepsin X cannot cleave any of the AMC substrates, MCARPPGFSAFK(Dnp)-OH (R & D Systems #ES005) was used to verify that cathepsin X was active.

[2] = molecular target: T3, cathepsin B in homogenates of mouse microglia BV2 cells (Mus musculus, UniProt P10605); assay: Cathepsin B (CA-074-sensitive) activity in mouse microglia cell homogenates; conditions: for cathepsin B activity detected in cell homogenate: pH 4.6; for monitoring of cathepsin B (CA-074-sensitive) activity in cell homogenate: pH 4.6, 5.5, 7.2
T3 construct: homogenates of human neuroblastoma cell lines, SHSY-5Y and SK-N-MC, and mouse microglia cell line, BV2; endogenous in cells; host or cells: BV2 mouse microglia cells (homogenate; cytosol fraction in the low nutrient stress assay)
T3 sequence (P10605 80-333): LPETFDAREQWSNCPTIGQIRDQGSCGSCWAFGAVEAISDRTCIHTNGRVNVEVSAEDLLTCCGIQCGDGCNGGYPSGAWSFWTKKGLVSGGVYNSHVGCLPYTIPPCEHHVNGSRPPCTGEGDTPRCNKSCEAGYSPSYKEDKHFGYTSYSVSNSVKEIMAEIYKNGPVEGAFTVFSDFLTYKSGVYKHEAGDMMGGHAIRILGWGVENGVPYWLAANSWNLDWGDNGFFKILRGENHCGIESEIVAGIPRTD
Procedure: (§3) Cathepsin B activity in human neuroblastoma and mouse microglia. Characterization of Z-Nle-Lys-Arg-AMC substrate in proteolytic activity assays for specific cathepsin B activity of cell homogenates (prepared in 0.32 M sucrose) was conducted at 40 mM citrate phosphate pH 4.6, 5.5, and 7.2, 5 mM DTT, 1 mM EDTA, 100 mM NaCl, 1.2% DMSO, and homogenates of human neuroblastoma cell lines, SHSY-5Y and SK-N-MC, and mouse microglia cell line, BV2. A concentration of 6 μM Z-Nle-Lys-Arg-AMC, Z-Arg-Arg-AMC, and Z-Phe-Arg-AMC substrates were used in the proteolytic activity assays. Cell homogenates were diluted 1:10 prior to addition to assays. […] Assays were performed in 96-well plates at room temperature (25° C.) in a total volume of 100 μl with triplicates. Cell homogenates were incubated with CA-074 or inhibitor controls at RT for 30 minutes in the absence of substrate, followed by addition of substrate and incubation at 37° C. Fluorescence was quantified at 15, 30, and 60 minutes after substrate was added, by a Biotek Synergy HTX microplate reader with excitation at 360 nm, and emission at 460 nm, gain 50, top optics and read height at 1 mm. Prism GraphPad software was used to analyze data.

cathepsin S = molecular target: T4, cathepsin S (Homo sapiens, UniProt P25774); assay: Substrate selectivity: cleavage of AMC substrates by cathepsin S
T4 construct: purchased R & D Systems 1183-CY-010
T4 sequence (P25774 115-331): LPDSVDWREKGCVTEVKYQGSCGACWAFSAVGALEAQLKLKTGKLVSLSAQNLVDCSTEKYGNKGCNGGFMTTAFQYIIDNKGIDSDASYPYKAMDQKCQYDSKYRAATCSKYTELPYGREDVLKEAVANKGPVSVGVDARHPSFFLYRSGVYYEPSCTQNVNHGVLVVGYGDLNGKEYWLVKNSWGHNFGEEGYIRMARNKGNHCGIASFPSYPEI
Procedure: as §1
as §2, with “For evaluation of cathepsin B and cysteine cathepsins for substrate selectivity each cathepsin was incubated with 4 μM substrates consisting of Z-Phe-Arg-AMC.” left out

cathepsin K = molecular target: T5, cathepsin K (Homo sapiens, UniProt P43235); assay: Substrate selectivity: cleavage of AMC substrates by cathepsin K
T5 construct: active cathepsin K (Abcam, #ab157067); purchased Abcam ab157067
T5 sequence (P43235 115-329): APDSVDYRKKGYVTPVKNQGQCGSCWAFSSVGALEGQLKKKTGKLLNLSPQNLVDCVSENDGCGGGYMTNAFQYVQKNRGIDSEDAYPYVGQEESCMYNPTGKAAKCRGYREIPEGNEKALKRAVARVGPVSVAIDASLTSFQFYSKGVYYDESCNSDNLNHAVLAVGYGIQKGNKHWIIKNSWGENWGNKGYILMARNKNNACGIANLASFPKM

[3] = molecular target: T6, cathepsin B in homogenates of human neuroblastoma SHSY-5Y and SK-N-MC cells (Homo sapiens, UniProt P07858); assay: Cathepsin B (CA-074-sensitive) activity in human neuroblastoma cell homogenates; conditions: for cathepsin B activity detected in cell homogenate: pH 4.6; for monitoring of cathepsin B (CA-074-sensitive) activity in cell homogenate: pH 4.6, 5.5, 7.2
T6 construct: homogenates of human neuroblastoma cell lines, SHSY-5Y and SK-N-MC, and mouse microglia cell line, BV2; endogenous in cells; host or cells: SH-SY5Y and SK-N-MC human neuroblastoma cell homogenates
Procedure: as §3

human cathepsin B [4] = molecular target: T1, human cathepsin B; assay: Cathepsin B activity with fluorogenic Z-peptide-AMC substrates (specific activity, pH profile); conditions: pH 4.6 and pH 7.2; substrates at 4 μM (FIG. 3)
cathepsin V = molecular target: T7, cathepsin V (Homo sapiens, UniProt O60911); assay: Substrate selectivity: cleavage of AMC substrates by cathepsin V
T7 construct: purchased R & D Systems 1080-CY-010
T7 sequence (O60911 114-334): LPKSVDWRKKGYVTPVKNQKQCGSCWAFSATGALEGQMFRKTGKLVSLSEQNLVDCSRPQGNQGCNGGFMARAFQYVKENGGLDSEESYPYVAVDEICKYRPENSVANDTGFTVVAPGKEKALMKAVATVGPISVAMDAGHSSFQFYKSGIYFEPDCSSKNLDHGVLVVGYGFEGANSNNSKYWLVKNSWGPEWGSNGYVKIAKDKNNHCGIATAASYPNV
Procedure: as §1
as §2, with “For evaluation of cathepsin B and cysteine cathepsins for substrate selectivity each cathepsin was incubated with 4 μM substrates consisting of Z-Phe-Arg-AMC.” left out

mouse cathepsin B = molecular target: T8, mouse cathepsin B (Mus musculus, UniProt P10605); assay: Mouse cathepsin B specific activity with AMC substrates; conditions: pH 4.6, 5.5 and 7.2; 40 μM substrate
T8 construct: purchased R & D Systems 965-CY-010
T8 sequence (P10605 80-333 limits assumed): as the sequence (P10605 80-333) above
Procedure: FIGS. 11a-11b. […] (FIG. 11a) pH-dependence of mouse cathepsin B activity with Z-Nle-Lys-Arg-AMC compared to Z-Arg-Arg-AMC and Z-Phe-Arg-AMC substrates. Cathepsin B specific activity with the three different substrates (40 μM) were assessed at pH 4.6, 5.5, and 7.2. Data points are shown as the mean+SD (n=3).

[5] = pH 4.6, 5.5 and 7.2 (FIGS. 5a-5c)
[6] = pH 4.6 and 7.2, 40 μM substrate ('Table 1' comparison)
[7] = CA-074 1 μM, 30 min pre-incubation

Cbz-[Nle]-Lys-Arg-{AMC}
pH of maximal activity (human cathepsin B [1]; pH profile pH 2 to 9): 5.5-6.5 pH | cleavage by cathepsin L (cathepsin L; [5]): not cathepsins L. K. S, and V activities | cathepsin B activity detected in cell homogenate [2]: robust cathepsin B activity | monitoring of cathepsin B (CA-074-sensitive) activity in cell homogenate [2]: highly sensitive for monitoring cathepsin B activity | cleavage by cathepsin S (cathepsin S; [5]): not cathepsins L. K. S, and V activities | cleavage by cathepsin K (cathepsin K; [5]): not cathepsins L. K. S, and V activities | cathepsin B activity detected in cell homogenate [3]: robust cathepsin B activity | monitoring of cathepsin B (CA-074-sensitive) activity in cell homogenate [3]: highly sensitive for monitoring cathepsin B activity | cathepsin B specific activity compared among substrates (human cathepsin B [4]): higher than all other substrates at both pHs | cleavage by cathepsin V (cathepsin V; [5]): not cathepsins L. K. S, and V activities | mouse cathepsin B specific activity (mouse cathepsin B): highest specific activity

Cbz-Arg-Arg-{AMC}
cleavage by cathepsin B at acidic pH (human cathepsin B [1]; pH 4.6, 40 μM substrate): poor cleavage activity | cleavage by cathepsin B (human cathepsin B [1]): cleaved by cathepsin B and other cysteine cathepsins L, K, S, and V | specific activity at acidic pH as fraction of specific activity at neutral pH (human cathepsin B [1]; pH 4.6 vs pH 7.2): one-third | cleavage by cathepsin B at neutral pH (human cathepsin B [1]; pH 7.2, 40 μM substrate): readily cleaved | cleavage by cathepsin L (cathepsin L; [5]): cleaved by cathepsins L and V | cleavage by cathepsin L (cathepsin L; [6]): cleaved by cathepsin B and other cysteine cathepsins L, K, S, and V | cathepsin B activity detected in cell homogenate [2]: none or little activity | monitoring of cathepsin B (CA-074-sensitive) activity in cell homogenate [2]: only low cathepsin B activity | cleavage by cathepsin S (cathepsin S; [6]): cleaved by cathepsin B and other cysteine cathepsins L, K, S, and V | cleavage by cathepsin K (cathepsin K; [6]): cleaved by cathepsin B and other cysteine cathepsins L, K, S, and V | cathepsin B activity detected in cell homogenate [3]: none or little activity | monitoring of cathepsin B (CA-074-sensitive) activity in cell homogenate [3]: only low cathepsin B activity | cleavage by cathepsin V (cathepsin V; [5]): cleaved by cathepsins L and V | cleavage by cathepsin V (cathepsin V; [6]): cleaved by cathepsin B and other cysteine cathepsins L, K, S, and V | mouse cathepsin B specific activity (mouse cathepsin B): low

Cbz-Leu-Lys-Arg-{AMC}
cathepsin B specific activity compared among substrates (human cathepsin B [4]): less activity than Z-Nle-Lys-Arg-AMC

CCCNC(=O)[C@H]1O[C@@H]1C(=O)N[C@H](C(=O)N1CCC[C@H]1C(=O)O)[C@@H](C)CC [CA-074]
effect on cathepsin B activity in cell homogenate [2, 7]: inhibition | effect on cathepsin B activity in cell homogenate [3, 7]: inhibition

Cbz-Phe-Arg-{AMC}
cleavage by cathepsin B (human cathepsin B [1]): cleaved by cathepsin B and other cysteine cathepsins L, K, S, and V | cleavage by cathepsin L (cathepsin L; [5]): cleaved by cathepsin L with greater activity than that for cathepsin B | cleavage by cathepsin L (cathepsin L; [6]): cleaved by cathepsin B and other cysteine cathepsins L, K, S, and V | monitoring of cathepsin B (CA-074-sensitive) activity in cell homogenate [2]: detected cathepsin B as well as other cysteine cathepsin activity | cleavage by cathepsin S (cathepsin S; [6]): cleaved by cathepsin B and other cysteine cathepsins L, K, S, and V | cleavage by cathepsin K (cathepsin K; [5]): also cleaved by cathepsins K and V | cleavage by cathepsin K (cathepsin K; [6]): cleaved by cathepsin B and other cysteine cathepsins L, K, S, and V | monitoring of cathepsin B (CA-074-sensitive) activity in cell homogenate [3]: detected cathepsin B as well as other cysteine cathepsin activity | cleavage by cathepsin V (cathepsin V; [5]): also cleaved by cathepsins K and V | cleavage by cathepsin V (cathepsin V; [6]): cleaved by cathepsin B and other cysteine cathepsins L, K, S, and V | mouse cathepsin B specific activity (mouse cathepsin B): moderate specific activity

Cbz-Lys-Arg-{AMC}
cathepsin B specific activity compared among substrates (human cathepsin B [4]): lower activity than Z-Nle-Lys-Arg-AMC

Cbz-[Nle]-Arg-Arg-{AMC}
less activity compared to Z-Nle-Lys-Arg-AMC (human cathepsin B [1]; pH 4.6): about 30% | less activity compared to Z-Nle-Lys-Arg-AMC (human cathepsin B [1]; pH 7.2): ~50%
